Source: patent publication US20250108038A1 (priority 2023, published 2025)
“And” between values parts separate entries of the source, which are not always exact repeats. Equal entries are not always repeated.

Test: in vivo
Conditions: for plasma concentration of Compound A: after Compound I-19 single PO 6.645 mg/kg; for plasma concentration of Compound I-19: single IP 4.061 mg/kg
Protocol: Dose solutions were prepared freshly on each day of studies prior to dosing.
The animals were weighed immediately prior to dosing and the dose volume was calculated individually based the obtained body weight and the nominal dose volume. […] The nominal dose volume was 10 mL/kg in both studies.
Cage side observation was performed before and after dosing as well as at each scheduled sample collection time. The observation included appearance, posture, behavior, morbidity and mortality. Abnormal findings, if any, are required to be recorded in the study record and communicated with study director, veterinarian, and Supernus if necessary.
Approximately 40 μL blood was collected at each scheduled time point from saphenous veins. The actual sample collection time was within 1 min. of the nominal time for collections prior to or at 1 hour, and within 5% of the nominal values for collections post 1 hour.
The blood samples were placed in pre-labeled micro-centrifuge tubes containing K2EDTA as anticoagulant and kept on ice before they were processed to plasma within 30 minutes of collection by centrifugation at 4° C., 3000 g for 5 minutes. The plasma samples were stored at −70±10° C. until LC-MS/MS analysis.
Plasma concentrations below the LLOQ prior to Tmax were set to zero, and those after Tmax were excluded from PK calculation. The nominal dose and the nominal sample collection time were used for the calculation. The values of plasma concentrations and PK parameters are reported to three significant figures. The average values of each treatment group are presented as mean±SD.

[1] = after Compound I-19 IP 4.061 mg/kg, average
[2] = after Compound I-19 IP 4.061 mg/kg, mean±SD
[3] = after Compound I-19 PO 6.645 mg/kg, mean±SD
[4] = single IP Compound I-19 4.061 mg/kg, male CD-1 mice, individual animals

With `Clc1ccc(C2(OCC3OCCO3)c3ccccc3C3=NCCN32)cc1` (stereo not shown) [Compound I-19] the “AUC0-last of Compound I-19” value (IP 4.061 mg/kg, mean±SD) was 482 ± 92.9 ng·h/mL, the “Cmax of Compound I-19” value (IP 4.061 mg/kg, mean±SD) was 373 ± 101 ng/mL and the “MRT0-last of Compound I-19” value (IP 4.061 mg/kg, mean±SD) was 69 ± 24.4 min. The “T1/2 of Compound I-19” value (IP 4.061 mg/kg, mean±SD) was 37.9 ± 16.2 min, the “Tmax of Compound I-19” value (IP 4.061 mg/kg, mean±SD) was 25 ± 8.64 min and the “AUC0-last of Compound I-19” value (PO 6.645 mg/kg, mean±SD) was 2.04 ± 2.56 ng·h/mL. The “Cmax of Compound I-19” value (PO 6.645 mg/kg, mean±SD) was 4.27 ± 3.1 ng/mL, the “MRT0-last of Compound I-19” value (PO 6.645 mg/kg, mean±SD) was 21.9 ± 7.56 min and the “Tmax of Compound I-19” value (PO 6.645 mg/kg, mean±SD) was 20 ± 8.64 min. For the same compound, the “MRT0-last of Compound B” value [1] was 186 min, the “T1/2 of Compound B” value [1] was 220 min and the “Tmax of Compound B” value [1] was 120 min. The “AUC0-last of Compound A” value [2] was 104 ± 36.7 ng·h/mL, the “AUC0-last of Compound B” value [2] was 120 ± 58.1 ng·h/mL and the “Cmax of Compound A” value [2] was 50.5 ± 20 ng/mL. The “Cmax of Compound B” value [2] was 30.7 ± 5.42 ng/mL, the “MRT0-last of Compound A” value [2] was 106 ± 27.2 min and the “T1/2 of Compound A” value [2] was 75 ± 18.8 min. For the same compound, the “Tmax of Compound A” value [2] was 40 ± 17.3 min, the “AUC0-last of Compound A” value [3] was 203 ± 45.2 ng·h/mL and the “Cmax of Compound A” value [3] was 158 ± 27.2 ng/mL. For the same compound, the “MRT0-last of Compound A” value [3] was 71.4 ± 4.14 min, the “T1/2 of Compound A” value [3] was 51.3 ± 10.4 min and the “Tmax of Compound A” value [3] was 20 ± 8.64 min. The “plasma concentration of Compound A” value (0.500 h, mean) was 126 ng/mL, the “plasma concentration of Compound A” value (1.00 h, individual mice, 6.645 mg/kg) was 123 ng/mL and 54.4 ng/mL and 83.2 ng/mL and the “plasma concentration of Compound A” value (1.00 h, mean) was 86.9 ng/mL. For the same compound, the “plasma concentration of Compound A” value (2.00 h, individual mice, 6.645 mg/kg) was 44.1 ng/mL and 31.3 ng/mL and 36.7 ng/mL, the “plasma concentration of Compound A” value (2.00 h, mean) was 37.4 ng/mL and the “plasma concentration of Compound A” value (4.00 h, individual mice, 6.645 mg/kg) was 5.24 ng/mL and 6.75 ng/mL and 8.65 ng/mL. For the same compound, the “plasma concentration of Compound A” value (4.00 h, mean) was 6.88 ng/mL, the “plasma concentration of Compound A” value (8.00 h, individual mice) was “BQL” and the “plasma concentration of Compound A” value (24.0 h, individual mice) was “BQL”. The “Clinical observation (tolerability)” value (male CD-1 mice, administered dosages (Compound A PO 5.102 mg/kg; Compound I-19 PO 6.645, IP 4.061 mg/kg)) was “well tolerated”, the “plasma concentration of Compound I-19” value (0.500 h, individual mice, 4.061 mg/kg) was 415 ng/mL and 311 ng/mL and 318 ng/mL and the “plasma concentration of Compound I-19” value (0.500 h, mean) was 348 ng/mL. The “plasma concentration of Compound I-19” value ([…] h, individual mice, 4.061 mg/kg) was 196 ng/mL and 269 ng/mL and 201 ng/mL, the “plasma concentration of Compound I-19” value ([…] h, mean) was 222 ng/mL and the “plasma concentration of Compound I-19” value (2.00 h, individual mice, 4.061 mg/kg) was 39.7 ng/mL and 100 ng/mL and 71.6 ng/mL. For the same compound, the “plasma concentration of Compound I-19” value (2.00 h, mean) was 70.4 ng/mL, the “plasma concentration of Compound I-19” value (4.00 h, mean) was 13.1 ng/mL and the “plasma concentration of Compound I-19” value (8.00 h, individual mice) was 1.39 ng/mL. The “plasma concentration of Compound I-19” value (8.00 h, individual mice, 4.061 mg/kg) was “BQL”, the “plasma concentration of Compound I-19” value (24.0 h, individual mice) was “BQL” and the “AUC0-inf of Compound I-19” value [4] was 444 ng·h/mL and 589 ng·h/mL and 417 ng·h/mL. The “AUC0-last of Compound I-19” value [4] was 443 ng·h/mL and 588 ng·h/mL and 414 ng·h/mL, the “Cmax of Compound I-19” value [4] was 489 ng/mL and 311 ng/mL and 318 ng/mL and the “MRT0-inf of Compound I-19” value [4] was 49.6 min and 97.2 min and 62.4 min. For the same compound, the “MRT0-last of Compound I-19” value [4] was 48.9 min and 96 min and 61.2 min, the “T1/2 of Compound I-19” value [4] was 27.1 min and 56.5 min and 29.9 min and the “Tlast of Compound I-19” value [4] was 4.00 h (2×) and 8.00 h. For the same compound, the “Tmax of Compound I-19” value [4] was 30 min.
